In patent publication US20250179057A1, “MEK IMMUNE ONCOLOGY INHIBITORS AND THERAPEUTIC USES THEREOF” (Immuneering Corporation, priority 2022, published 2025):
Structures can show the parent of a compound that is named as a salt.

Legend:
hERG = hERG (Homo sapiens, UniProt Q12809); experiment: cell-based
Protocol: Materials and Methods: CHO cells (transformed with adenovirus 5 DNA; Stably transfected with full length hERG cDNA) were cultured in Ham's F-12 supplemented with 10% fetal bovine serum, 100 U/mL penicillin G sodium, 100 μg/mL streptomycin sulfate and 400 μg/mL Zeocin. Before testing, cells in culture dishes were rinsed with Hank's Balanced Salt Solution, detached with accutase.
HEPES-buffered intracellular solution (Charles River proprietary) for whole cell recordings was loaded into the intracellular compartment of the SP384PE. Extracellular buffer (HB-PS) and Cell suspension (in HB-PS) were pipetted into the extracellular compartment of the SP384PE chip. After establishment of a whole-cell configuration, membrane currents were recorded using patch clamp amplifier in the SP384PE system.
Test article (TA) concentrations (eight (8) concentrations of each test article were evaluated) were applied to naïve cells (n=4, where n=replicates/concentration). Each application consisted of addition of 40 μL of 2× concentrated test article solution to the total 80 μL of final volume of the extracellular well of the SP384PE chip. Duration of exposure to each compound concentration was five (5) minutes.
hERG current was measured using stimulus voltage patterns with fixed amplitudes: activation pre-pulse (TP1) to +40 mV for 2 s and test pulse (TP2) to −40 mV for 2 s from a holding potential of −80 mV. hERG current was measured as the outward peak current at TP2 (tail current). The stimulation was repeated with 0.1 Hz frequency during 2 min as baseline and 5 min after TA application.
Data acquisition and analyses were performed using the SP384PE system operation software. The decrease in current amplitude after TA application was used to calculate the percent block relative to control.
Tonic Block effect was calculated as:
[formula] • where ITP2, baseline and ITP2, TA were the outward peak K^+ currents elicited by the TP2 before application and 5 min after application of a test article, respectively.
The data were corrected for run-down:
[formula] • where % VC and % PC were the mean values of the current block with the vehicle and positive controls, respectively.
Concentration-response data were fitted to an equation of the following form:
[formula] • where [Test] was the concentration of test article, IC50 was the concentration of the test article producing half-maximal block, N was the Hill coefficient, % VC was the mean current block at the vehicle control and % Block was the percentage of ion channel current inhibited at each concentration of a test article. Nonlinear least squares fits were solved with the XLfit add-in for Excel (Microsoft, Redmond, WA).
In this study, hERG Ion channel block of IC50 values were determined. […] In brief, CHO cells were cultured in Ham's F-12 supplemented with 10% fetal bovine serum, 100 U/mL penicillin G sodium, 100 μg/mL streptomycin sulfate and 400 μg/mL Zeocin. Before testing, cells in culture dishes were rinsed with Hank's Balanced Salt Solution, detached with accutase. […] Test article (TA) concentrations were applied to naïve cells (n=4, where n=replicates/concentration). Each application consisted of addition of 40 μL of 2× concentrated test article solution to the total 80 μL of final volume of the extracellular well of the SP384PE chip. Duration of exposure to each compound concentration was five (5) minutes. hERG current was measured using stimulus voltage patterns with fixed amplitudes: activation pre-pulse (TP1) to +40 mV for 2 s and test pulse (TP2) to −40 mV for 2 s from a holding potential of −80 mV. hERG current was measured as the outward peak current at TP2 (tail current). The stimulation was repeated with 0.1 Hz frequency during 2 min as baseline and 5 min after TA application. Data acquisition and analyses were performed using the SP384PE system operation software.

PAMPA (pH 7.4) = format: in vitro ADME; settings: PAMPA
Protocol: Each stock solution was diluted to 50 M in pH 7.4 Prisma HT buffer (pION) and 200 μl was added to each well of the donor plate in triplicate. The polyvinylidene fluoride (PVDF, 0.45 μm) filter membrane on the acceptor plate was coated with 5 μl gastrointestinal tract lipid formulation (GIT-0, pION) and to each well of the acceptor plate, 200 μl of acceptor sink buffer (pION) was added. The acceptor filter plate was then carefully placed on top of the donor plate to form a sandwich. The sandwich was incubated at 25° C. for 4 h without stirring. UV-vis spectra of the solutions in the blank, reference, acceptor and donor plates were measured using a microplate reader (Tecan Infinite 200PRO M Nano Plus). Permeability values were calculated using the PAMPA explorer software v.

[1] = Hepatocyte stability, human; format: in vitro ADME; settings: 0.5 million cells/ml; for half-life at 2 μM: human hepatocytes, 120 min; for CLint scaled at 2 μM: human, hepatocytes
Protocol: (§1) In this study, human, cynomolgus monkey, beagle dog, wistar hannover rat, and balb/c mouse hepatocyle stability was determined.

[2] = Hepatocyte stability, beagle dog; format: in vitro ADME; settings: 0.5 million cells/ml; for half-life at 2 μM: beagle dog hepatocytes; for CLint scaled at 2 μM: beagle, dog, hepatocytes
Protocol: as §1

[3] = Hepatocyte stability, wistar hannover rat; format: in vitro ADME; settings: 0.5 million cells/ml; for CLint scaled at 2 μM: Wistar Hannover, rat, hepatocytes; for half-life at 2 μM: wistar hannover rat hepatocytes
Protocol: as §1

[4] = Hepatocyte stability, balb/c mouse; format: in vitro ADME; settings: 0.5 million cells/ml; for CLint scaled at 2 μM: BALB/c, mouse, hepatocytes; for half-life at 2 μM: balb/c mouse hepatocytes
Protocol: as §1

CYP2B6 = target: T1, CYP2B6 (Homo sapiens, UniProt P20813); experiment: CYP450 panel inhibition in human liver microsomes, 2B6 (bupropion); settings: 10 μM, substrate bupropion
T1 sequence (P20813 1-491): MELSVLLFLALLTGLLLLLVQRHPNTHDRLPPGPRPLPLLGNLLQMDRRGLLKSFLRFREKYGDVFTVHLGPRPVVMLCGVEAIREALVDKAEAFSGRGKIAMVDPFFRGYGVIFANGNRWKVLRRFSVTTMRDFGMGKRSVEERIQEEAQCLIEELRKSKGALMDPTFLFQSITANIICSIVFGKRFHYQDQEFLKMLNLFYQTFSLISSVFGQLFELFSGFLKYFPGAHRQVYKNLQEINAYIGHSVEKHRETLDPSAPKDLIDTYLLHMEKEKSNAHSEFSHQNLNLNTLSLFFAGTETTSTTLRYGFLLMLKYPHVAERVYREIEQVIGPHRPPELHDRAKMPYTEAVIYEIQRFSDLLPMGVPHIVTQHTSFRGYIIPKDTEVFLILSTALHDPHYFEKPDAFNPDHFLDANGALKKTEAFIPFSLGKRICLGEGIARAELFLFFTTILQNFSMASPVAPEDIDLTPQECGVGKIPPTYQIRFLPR

CYP2C19 = CYP2C19 (Homo sapiens, UniProt P33261); experiment: CYP450 panel inhibition in human liver microsomes, 2C19 (mephenytoin); settings: 10 μM, substrate mephenytoin
CYP2C19, sequence (P33261 whole entry): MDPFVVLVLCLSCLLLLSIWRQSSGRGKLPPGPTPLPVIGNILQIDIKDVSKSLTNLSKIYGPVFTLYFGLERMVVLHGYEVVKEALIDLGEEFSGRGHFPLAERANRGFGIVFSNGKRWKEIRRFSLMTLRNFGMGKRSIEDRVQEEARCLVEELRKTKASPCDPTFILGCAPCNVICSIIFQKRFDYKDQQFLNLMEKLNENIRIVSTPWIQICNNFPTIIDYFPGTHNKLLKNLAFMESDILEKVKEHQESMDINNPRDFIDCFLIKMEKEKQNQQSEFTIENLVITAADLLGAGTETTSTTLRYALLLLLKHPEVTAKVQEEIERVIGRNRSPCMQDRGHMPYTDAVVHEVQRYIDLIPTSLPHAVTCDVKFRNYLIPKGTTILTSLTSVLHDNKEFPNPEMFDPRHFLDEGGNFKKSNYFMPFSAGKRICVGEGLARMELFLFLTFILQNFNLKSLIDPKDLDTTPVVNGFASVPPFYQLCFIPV

CYP2D6 = CYP2D6 (Homo sapiens, UniProt P10635); experiment: CYP450 panel inhibition in human liver microsomes, 2D6 (dextromethorphan); settings: 10 μM, substrate dextromethorphan
CYP2D6, sequence (P10635 whole entry): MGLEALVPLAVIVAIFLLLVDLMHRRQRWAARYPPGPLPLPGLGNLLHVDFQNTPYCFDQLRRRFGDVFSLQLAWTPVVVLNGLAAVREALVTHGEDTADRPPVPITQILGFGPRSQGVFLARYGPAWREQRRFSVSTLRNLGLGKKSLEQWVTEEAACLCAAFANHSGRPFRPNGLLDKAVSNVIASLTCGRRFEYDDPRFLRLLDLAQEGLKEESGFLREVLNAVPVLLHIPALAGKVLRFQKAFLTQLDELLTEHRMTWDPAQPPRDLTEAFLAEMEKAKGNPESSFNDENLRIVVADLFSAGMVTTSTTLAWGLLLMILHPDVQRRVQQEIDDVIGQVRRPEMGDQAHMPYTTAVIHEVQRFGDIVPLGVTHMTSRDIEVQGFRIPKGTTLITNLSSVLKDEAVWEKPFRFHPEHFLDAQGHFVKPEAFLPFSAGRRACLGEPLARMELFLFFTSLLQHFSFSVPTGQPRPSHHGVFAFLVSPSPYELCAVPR

[5] = read-out: CLint (L/hr/kg) (converted)

hERG, sequence (Q12809 whole entry): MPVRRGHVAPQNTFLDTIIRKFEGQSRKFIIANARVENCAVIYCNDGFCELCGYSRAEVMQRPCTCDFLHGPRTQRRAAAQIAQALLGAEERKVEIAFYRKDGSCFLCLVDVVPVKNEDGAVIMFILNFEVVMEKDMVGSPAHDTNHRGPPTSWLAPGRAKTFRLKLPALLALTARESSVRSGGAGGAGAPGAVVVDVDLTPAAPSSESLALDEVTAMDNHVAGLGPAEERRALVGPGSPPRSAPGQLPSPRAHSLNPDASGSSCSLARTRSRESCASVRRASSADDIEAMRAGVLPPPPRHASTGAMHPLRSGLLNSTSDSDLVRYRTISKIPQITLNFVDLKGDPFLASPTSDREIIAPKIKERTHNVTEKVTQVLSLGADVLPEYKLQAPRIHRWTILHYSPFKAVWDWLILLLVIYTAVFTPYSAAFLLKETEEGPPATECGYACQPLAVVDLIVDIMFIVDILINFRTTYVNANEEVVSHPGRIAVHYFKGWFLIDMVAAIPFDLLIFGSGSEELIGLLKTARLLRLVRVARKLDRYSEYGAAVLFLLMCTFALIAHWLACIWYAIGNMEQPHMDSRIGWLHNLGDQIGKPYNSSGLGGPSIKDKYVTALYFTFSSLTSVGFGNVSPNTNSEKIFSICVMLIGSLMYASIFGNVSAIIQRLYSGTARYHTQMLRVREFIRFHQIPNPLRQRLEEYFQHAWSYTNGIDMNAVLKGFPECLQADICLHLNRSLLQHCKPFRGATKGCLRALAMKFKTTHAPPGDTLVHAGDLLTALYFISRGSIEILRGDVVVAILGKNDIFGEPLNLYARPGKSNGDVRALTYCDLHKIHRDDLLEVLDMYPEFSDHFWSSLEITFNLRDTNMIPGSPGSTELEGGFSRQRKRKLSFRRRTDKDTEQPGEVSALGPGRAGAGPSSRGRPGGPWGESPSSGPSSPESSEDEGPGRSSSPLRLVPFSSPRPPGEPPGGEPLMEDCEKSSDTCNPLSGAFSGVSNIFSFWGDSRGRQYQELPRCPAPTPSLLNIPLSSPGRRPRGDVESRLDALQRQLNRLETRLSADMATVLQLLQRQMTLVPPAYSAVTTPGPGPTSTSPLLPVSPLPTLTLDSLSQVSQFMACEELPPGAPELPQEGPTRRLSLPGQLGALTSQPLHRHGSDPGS

SMILES	IC50 (hERG)	Papp at 4 h, 50 μM (PAMPA (pH 7.4); pH = 7.4 (Table 14))	half-life at 2 μM [1]	CLint scaled at 2 μM [1, 5]	CLint scaled at 2 μM ([1]; read-out: CLint (mL/min/kg))	half-life at 2 μM [2]	CLint scaled at 2 μM [2, 5]	CLint scaled at 2 μM ([2]; read-out: CLint (mL/min/kg))	CLint scaled at 2 μM [3, 5]	CLint scaled at 2 μM ([3]; read-out: CLint (mL/min/kg))	half-life at 2 μM [3]	CLint scaled at 2 μM [4, 5]	CLint scaled at 2 μM ([4]; read-out: CLint (mL/min/kg))	half-life at 2 μM [4]	CYP-2B6 (Bupropion) mean percentage CYP inhibition (CYP2B6)	CYP-2C19 (Mephenytoin) mean percentage CYP inhibition (CYP2C19)	CYP-2D6 (Dextromethorphan) mean percentage CYP inhibition (CYP2D6)	Papp at 4 h, 50 μM (PAMPA (pH 7.4); pH = 7.4)	IC50 at 5 min (hERG; human)
CNS(=O)(=O)Nc1cccc(Cc2c(CN3CCNCC3)c3ccc(OC(=O)N(C)C)cc3oc2=O)c1Cl [Compound 246, 3-(2-chloro-3-((N-methylsulfamoyl)amino)benzyl)-2-oxo-4-(piperazin-1-ylmethyl)-2H-chromen-7-yl dimethylcarbamate hydrochloride]	> 30 µM	2 ×10⁻⁶ cm/s	28.8 h	0.13 L/h/kg	0.13 L/h/kg	6.07 h	1.23 L/h/kg	1.23 L/h/kg	1.25 L/h/kg	1.25 L/h/kg	3 h	3.62 L/h/kg	3.62 L/h/kg	4.53 h					
CCS(=O)(=O)Nc1cccc(Cc2c(CN(C)C)c3ccc(OC(=O)N(C)C)cc3oc2=O)c1F [Compound 120]															13.4%	14.2%	−1.9%		
CNS(=O)(=O)Nc1cccc(Cc2c(CN3CCNCC3)c3cc(F)c(OC(=O)N(C)C)cc3oc2=O)c1F [Compound 134]															10.3%	20.6%	0.5%		
CCS(=O)(=O)Nc1cccc(Cc2c(CN3CCNCC3)c3cc(Cl)c(OC(=O)N(C)C)cc3oc2=O)c1Cl [Compound 257, 6-chloro-3-(2-chloro-3-(ethylsulfonamido)benzyl)-2-oxo-4-(piperazin-1-ylmethyl)-2H-chromen-7-yl dimethylcarbamate hydrochloride]	8.4 µM	8 ×10⁻⁶ cm/s	12 h	0.312 L/h/kg	0.313 L/h/kg	1.88 h	3.96 L/h/kg	3.97 L/h/kg	2.13 L/h/kg	2.13 L/h/kg	1.75 h	4.78 L/h/kg	4.78 L/h/kg	3.43 h					
CNS(=O)(=O)Nc1nccc(Cc2c(C)c3ccc(Oc4ncccn4)cc3oc2=O)c1F [Reference-2, reference compound]																		29 ×10⁻⁶ cm/s	
CNS(=O)(=O)Nc1cccc(Cc2c(CN(C)C)c3ccc(OC(=O)N(C)C)cc3oc2=O)c1Cl [Compound 274, 3-(2-chloro-3-((N-methylsulfamoyl)amino)benzyl)-4-((dimethylamino)methyl)-2-oxo-2H-chromen-7-yl dimethylcarbamate]	> 30 µM		1.87 h	2.01 L/h/kg	2.01 L/h/kg	2.12 h	3.52 L/h/kg	3.52 L/h/kg	2.84 L/h/kg	2.84 L/h/kg	1.32 h	5.23 L/h/kg	5.23 L/h/kg	3.13 h					
CCN(C)Cc1c(Cc2cccc(NS(=O)(=O)NC)c2F)c(=O)oc2cc(OC(=O)N(C)C)c(F)cc12 [Compound 238]	19.4 µM	62 ×10⁻⁶ cm/s	1.07 h	3.51 L/h/kg	3.5 L/h/kg	1.19 h	6.28 L/h/kg	6.3 L/h/kg	3.97 L/h/kg	3.97 L/h/kg	0.943 h	6.57 L/h/kg	6.6 L/h/kg	2.48 h					
CCN(C)Cc1c(Cc2cccc(NS(=O)(=O)NC)c2Cl)c(=O)oc2cc(OC(=O)N(C)C)ccc12 [Compound 245, 3-(2-chloro-3-((N-methylsulfamoyl)amino)benzyl)-4-((ethyl(methyl)amino)methyl)-2-oxo-2H-chromen-7-yl dimethylcarbamate]	16.1 µM	53 ×10⁻⁶ cm/s	0.703 h	5.32 L/h/kg	5.32 L/h/kg	0.953 h	7.81 L/h/kg	7.8 L/h/kg	5 L/h/kg	5 L/h/kg	0.748 h	7.54 L/h/kg	7.56 L/h/kg	2.17 h					
CNS(=O)(=O)Nc1cccc(Cc2c(CN3CCNCC3)c3cc(Cl)c(OC(=O)N(C)C)cc3oc2=O)c1Cl [Compound 256, 6-chloro-3-(2-chloro-3-((N-methylsulfamoyl)amino)benzyl)-2-oxo-4-(piperazin-1-ylmethyl)-2H-chromen-7-yl dimethylcarbamate hydrochloride]	21.6 µM	4 ×10⁻⁶ cm/s	15.4 h	0.242 L/h/kg	0.242 L/h/kg	2.98 h	2.5 L/h/kg	2.5 L/h/kg	2.12 L/h/kg	2.12 L/h/kg	1.75 h	4.98 L/h/kg	4.98 L/h/kg	3.28 h					
CNS(=O)(=O)Nc1cccc(Cc2c(CN(C)C)c3cc(F)c(OC(=O)N(C)C)cc3oc2=O)c1F [Compound 25]															16.0%	26.5%	5.7%		
Cn1cnc2c(F)c(Nc3ccc(Br)cc3Cl)c(C(=O)NOCCO)cc21 [Reference-1, Selumetinib]																		29 ×10⁻⁶ cm/s	> 30 µM
